This note sets out measurements from patent US20130302282A1, “Inhibitors of Hepatitis C Virus” (priority 2010, published 2013).

The subject of this assay is 1b_Huh-Luc/Neo-ET cell line (bicistronic genotype 1b replicon in Huh 7 cells). The assay can be described thus: HCV 1b replicon assay, luciferase readout. The format is cell-based, HCV genotype 1b. How it is done:
Biological activity of the compounds of the invention was determined using an HCV replicon assay. The 1b_Huh-Luc/Neo-ET cell line persistently expressing a bicistronic genotype 1b replicon in Huh 7 cells was obtained from ReBLikon GMBH. This cell line was used to test compound inhibition using luciferase enzyme activity readout as a measurement of compound inhibition of replicon levels.
On Day 1 (the day after plating), each compound is added in triplicate to the cells. Plates incubated for 72 […] prior to running the luciferase assay. Enzyme activity was measured using a Bright-Glo Kit (cat. number E2620) manufactured by Promega Corporation. The following equation was used to generate a percent control value for each compound.
%Control=(Average Compound Value/Average Control)*100
The EC50 value was determined using GraphPad Prism and the following equation:
Y=Bottom+(Top−Bottom)/(1+10̂((LogIC50−X)*HillSlope))
EC50 values of compounds are repeated several times in the replicon assay.
In general terms: In antiviral work, replicon cells carry a viral genome segment that copies itself.

The mark [1] stands for this setting: Hepatitis C virus, Huh-7, 1b_Huh-Luc/Neo-ET cell line, read-out: EC50, half-maximal inhibition of HCV 1b replication.
The mark [2] stands for this setting: Hepatitis C virus, Huh-7, class symbol, HCV genotype 1b replicon, read-out: Inhibition of HCV genotype 1b replicon.

pEC50: −log10 of the molar value. Read-outs that look alike come from different tables or passages of the source.

Regarding `CNC(=O)c1c(-c2ccc(Oc3ccc(F)cc3)cc2)oc2cc3c(cc12)[C@H](C)O[C@H](CS(C)(=O)=O)CN3S(C)(=O)=O` [Compound B216], the pEC50 runs as follows: under setting [1], 7.00 to 8.00; (class symbol, HCV genotype 1b replicon, read-out: Inhibition of HCV genotype 1b replicon) 7.00 to 8.00. As to `CNC(=O)c1c(-c2ccc(Oc3ccc(F)cc3)cc2)oc2cc3c(cc12)[C@@H](C)CCCN3S(C)(=O)=O` (single isomer, unassigned) [Compound B86], the pEC50 under setting [2] was 6.00 to 7.00. On to `CNC(=O)c1c(-c2ccc(F)cc2)oc2cc3c(cc12)[C@@H](C)N(C)C(=O)CN3S(C)(=O)=O` (single isomer, unassigned) [Compound B180], for which the pEC50 under setting [1] is 7.00 to 8.00 and the pEC50 under setting [2] is 7.00 to 8.00.

Take `CNC(=O)c1c(-c2ccc(F)cc2)oc2cc3c(cc12)C(C)OC(C(=O)N1CCOCC1)CN3S(C)(=O)=O` (centres unmarked) [Compound B228]: the pEC50 is, setting by setting: under setting [1], 7.00 to 8.00; under setting [2], 7.00 to 8.00. As for `CNC(=O)c1c(-c2ccc(F)cc2)oc2cc3c(cc12)C(C)N(Cc1ccc(F)cc1)CCN3S(C)(=O)=O` (centres unmarked) [Compound B142], the pEC50 reads like this: under setting [1], 7.00 to 8.00; under setting [2], 7.00 to 8.00. Regarding `CNC(=O)c1c(-c2ccc(F)cc2)oc2cc3c(cc12)[C@@H](C)c1ccccc1CN3S(C)(=O)=O` (single isomer, unassigned) [Compound B204], the pEC50 by setting is: under setting [1], 7.00 to 8.00; under setting [2], 7.00 to 8.00.

Take `CNC(=O)c1c(-c2ccc(Oc3ccc(F)cc3)cc2)oc2cc3c(cc12)C(C)CCCN3S(C)(=O)=O` (centres unmarked) [Compound B47]: the pEC50 is, setting by setting: under setting [1], 7.00 to 8.00; under setting [2], 7.00 to 8.00. Take `CNC(=O)c1c(-c2ccc(F)cc2)oc2cc3c(cc12)C(O)C(C)(C)CCN3S(C)(=O)=O` (centres unmarked) [Compound B123]: the pEC50 under setting [1] was 7.00 to 8.00 and the pEC50 under setting [2] is 7.00 to 8.00. As for `CNC(=O)c1c(-c2ccc(F)cc2)oc2cc3c(cc12)C(C)N(C1CC1)CCN3S(C)(=O)=O` (centres unmarked) [Compound B124], the pEC50 under setting [1] is 7.00 to 8.00 and the pEC50 under setting [2] was 7.00 to 8.00. With `CNC(=O)c1c(-c2ccc(F)cc2)oc2cc3c(cc12)CCCCN3C(=O)OC` [Compound B87], the pEC50 under setting [2] is 6.00 to 7.00. Turning to `CNC(=O)c1c(-c2ccc(F)cc2)oc2cc3c(cc12)C(C)N([C@H](C)c1ccc(F)cc1)CCN3S(C)(=O)=O` (some centres unmarked) [Compound B159], the pEC50 was 7.00 to 8.00 under setting [1] and 7.00 to 8.00 under setting [2]. Turning to `CNC(=O)c1c(-c2ccc(F)cc2)oc2cc3c(cc12)CCCCCN3S(C)(=O)=O` [Compound B20], the pEC50 is at least 8.00 under setting [1] and over 8.00 under setting [2]. For `CNC(=O)c1c(-c2ccc(Oc3ccc(F)cc3)cc2)oc2cc3c(cc12)CCCCN3S(C)(=O)=O` [Compound B136], in that order: 7.00 to 8.00 and 7.00 to 8.00. `CNC(=O)c1c(-c2ccc(F)cc2)oc2cc3c(cc12)C(C)n1nnnc1CN3S(C)(=O)=O` (centres unmarked) [Compound B189]: the pEC50 runs as follows: under setting [1], 7.00 to 8.00; under setting [2], 7.00 to 8.00.

For `CNC(=O)c1c(-c2ccc(F)cc2)oc2cc3c(cc12)C1(CCN3S(C)(=O)=O)CC1` [Compound B2], the pEC50 is 7.00 to 8.00 under setting [1] and 7.00 to 8.00 under setting [2]. Consider `CNC(=O)c1c(-c2ccc(F)cc2)oc2cc3[nH]ccc3cc12` [Compound B25], for which the pEC50 under setting [2] is under 6.00. For `CNC(=O)c1c(-c2ccc(F)cc2)oc2cc3c(cc12)[C@@H](C)n1nncc1CN3S(C)(=O)=O` (single isomer, unassigned) [Compound B170], the pEC50 under setting [1] is 7.00 to 8.00 and the pEC50 under setting [2] was 7.00 to 8.00. With `CNC(=O)c1c(-c2ccc(F)cc2)oc2cc3c(cc12)C(C)OC(C(=O)N(C)C)CN3S(C)(=O)=O` (centres unmarked) [Compound B223], the pEC50 is, setting by setting: under setting [1], 7.00 to 8.00; under setting [2], 7.00 to 8.00. On to `CNC(=O)c1c(-c2ccc(F)cc2)oc2cc3c(cc12)C(C)N(CCF)CCN3S(C)(=O)=O` (centres unmarked) [Compound B147], for which the pEC50 is 7.00 to 8.00 under setting [1] and 7.00 to 8.00 under setting [2]. In the case of `[2H]C([2H])([2H])NC(=O)c1c(-c2ccc(Oc3ccc(F)cc3)cc2)oc2cc3c(cc12)C(C)N(C)CCN3S(C)(=O)=O` (centres unmarked) [Compound B160], the pEC50 is 7.00 to 8.00 under setting [1] and 7.00 to 8.00 under setting [2].

For `CNC(=O)c1c(-c2ccc(Oc3cccc(F)c3)cc2)nn2cc3c(cc12)C(C)CCCN3S(C)(=O)=O` (centres unmarked) [Compound B96], the pEC50 under setting [2] was 7.00 to 8.00. On to `CNC(=O)c1c(-c2ccc(Oc3ccc(F)cc3)cc2)oc2cc3c(cc12)C(C)OC(CCO)CN3S(C)(=O)=O` (centres unmarked) [Compound B235], for which the pEC50 by setting is: under setting [1], 7.00 to 8.00; under setting [2], 7.00 to 8.00. Consider `CNC(=O)c1c(-c2ccc(Oc3ccc(F)cc3)cc2)oc2cc3c(cc12)[C@H](C)N(C)C(=O)CN3S(C)(=O)=O` (single isomer, unassigned) [Compound B181], for which the pEC50 was 7.00 to 8.00 under setting [1] and 7.00 to 8.00 under setting [2]. For `CNC(=O)c1c(-c2ccc(F)cc2)oc2cc3c(cc12)[C@H]1C[C@H]1CCN3S(C)(=O)=O` (single isomer, unassigned) [Compound B133], under setting [2], the pEC50 is under 6.00. Consider `CNC(=O)c1c(-c2ccc(Oc3ccc(F)cc3)cc2)oc2cc3c(cc12)[C@H](C)O[C@H](COC(=O)[C@H](C)N)CN3S(C)(=O)=O` [Compound B238], for which the pEC50 under setting [1] is at least 8.00 and the pEC50 under setting [2] was over 8.00. With `CNC(=O)c1c(-c2ccc(Oc3ccc(F)cc3)cc2)oc2cc3c(cc12)C(C)OC1(CC1)CN3S(C)(=O)=O` (centres unmarked) [Compound B178], the pEC50 was 7.00 to 8.00 under setting [1] and 7.00 to 8.00 under setting [2]. For the compound `CNC(=O)c1c(-c2ccc(F)cc2)oc2cc3c(cc12)CCCCN3S(=O)(=O)C1CC1` [Compound B93], the pEC50 is, setting by setting: under setting [1], 7.00 to 8.00; under setting [2], 7.00 to 8.00. Turning to `CNC(=O)c1c(-c2ccc(F)cc2)oc2cc3c(cc12)C(C)OCC(CS(C)(=O)=O)N3S(C)(=O)=O` (centres unmarked) [Compound B225], the pEC50 by setting is: under setting [1], 7.00 to 8.00; under setting [2], 7.00 to 8.00. `CNC(=O)c1c(-c2ccc(F)cc2)oc2cc3c(cc12)C(C)OC(CN1CCOCC1)CN3S(C)(=O)=O` (centres unmarked) [Compound B205]: the pEC50 under setting [1] is 7.00 to 8.00 and the pEC50 under setting [2] was 7.00 to 8.00. Turning to `CNC(=O)c1c(-c2ccc(F)cc2)oc2cc3c(cc12)CCCCCCN3S(C)(=O)=O` [Compound B19], the pEC50 runs as follows: under setting [1], 7.00 to 8.00; under setting [2], 7.00 to 8.00. On to `CNC(=O)c1c(-c2ccc(F)cc2)nn2cc3c(cc12)C(C)OC(CO)CN3S(C)(=O)=O` (centres unmarked) [Compound B242], for which the pEC50 under setting [2] is 6.00 to 7.00.

On to `CNC(=O)c1c(-c2ccc(F)cc2)oc2cc3c(cc12)[C@@H](C)O[C@H](CO)CN3S(C)(=O)=O` [Compound B217], for which the pEC50 was 7.00 to 8.00 under setting [1] and 7.00 to 8.00 under setting [2]. As for `CNC(=O)c1c(-c2ccc(F)cc2)nc2cc3c(cn12)C(C)CCCN3S(C)(=O)=O` (centres unmarked) [Compound B56], under setting [2], the pEC50 was 6.00 to 7.00.

With `CNC(=O)c1c(-c2ccc(F)cc2)oc2cc3c(cc12)C(C)O[C@@H](c1ccc(F)cc1)CN3S(C)(=O)=O` (some centres unmarked) [Compound B210], the pEC50 was 7.00 to 8.00 under setting [1] and 7.00 to 8.00 under setting [2]. For the compound `CNC(=O)c1c(-c2ccc(F)cc2)oc2cc3c(cc12)[C@H](C)N1CCC[C@@H]1CN3S(C)(=O)=O` (single isomer, unassigned) [Compound B131], the pEC50 is at least 8.00 under setting [1] and over 8.00 under setting [2].

As to `CNC(=O)c1c(-c2ccc(F)cc2)oc2cc3c(cc12)CCc1ccccc1CN3S(C)(=O)=O` [Compound B200], the pEC50 runs as follows: under setting [1], 7.00 to 8.00; under setting [2], 7.00 to 8.00. As to `CC1OCCN(S(C)(=O)=O)c2cc3oc(-c4ccc(Oc5ccc(F)cc5)cc4)c(-c4ncc[nH]4)c3cc21` (centres unmarked) [Compound B202], the pEC50 is 7.00 to 8.00 under setting [1] and 7.00 to 8.00 under setting [2]. For `CNC(=O)c1c(-c2ccc(F)cc2)oc2cc3c(cc12)C(C)OCC(CO)N3S(C)(=O)=O` (centres unmarked) [Compound B219], the pEC50 reads like this: under setting [1], 7.00 to 8.00; under setting [2], 7.00 to 8.00.

With `CNC(=O)c1c(-c2ccc(F)cc2)oc2cc3c(cc12)C(C)OC(CS(C)(=O)=O)CN3S(C)(=O)=O` (centres unmarked) [Compound B196], the pEC50 reads like this: under setting [1], at least 8.00; under setting [2], over 8.00.

Turning to `C=CCN1CCN(S(C)(=O)=O)c2cc3oc(-c4ccc(F)cc4)c(C(=O)NC)c3cc2C1C` (centres unmarked) [Compound B54], the pEC50 is, setting by setting: under setting [1], 7.00 to 8.00; under setting [2], 7.00 to 8.00. Consider `CNC(=O)c1c(-c2ccc(Oc3ccc(F)cc3)cc2)oc2cc3c(cc12)C=CCCN3S(C)(=O)=O` [Compound B135], for which the pEC50 under setting [2] was 6.00 to 7.00. Consider `CNC(=O)c1c(-c2ccc(F)cc2)oc2cc3c(cc12)C(C)N(S(C)(=O)=O)CCN3S(C)(=O)=O` (centres unmarked) [Compound B157], for which the pEC50 is, setting by setting: under setting [1], 7.00 to 8.00; under setting [2], 7.00 to 8.00. On to `CNC(=O)c1c(-c2ccc(Oc3ccc(F)cc3)cc2)oc2cc3c(cc12)[C@@H](C)n1nncc1CN3S(C)(=O)=O` (single isomer, unassigned) [Compound B164], for which the pEC50 runs as follows: under setting [1], 7.00 to 8.00; under setting [2], 7.00 to 8.00.

Turning to `CNC(=O)c1c(-c2ccc(F)cc2)nn2cc3c(cc12)CCCCCN3S(C)(=O)=O` [Compound B125], under setting [2], the pEC50 was 7.00 to 8.00.

On to `CNC(=O)c1c(-c2ccc(Oc3ccc(F)cc3)cc2)oc2cc3c(cc12)[C@@H](C)O[C@@H](CS(C)(=O)=O)CN3S(C)(=O)=O` [Compound B206], for which, under setting [2], the pEC50 is 6.00 to 7.00.

Consider `CNC(=O)c1c(-c2ccc(F)cc2)oc2cc3c(cc12)[C@H](C)O[C@H](CCS(C)(=O)=O)CN3S(C)(=O)=O` [Compound B233], for which the pEC50 reads like this: under setting [1], at least 8.00; under setting [2], over 8.00. As to `CNC(=O)c1c(-c2ccc(Oc3ccccc3Cl)cc2)nn2cc3c(cc12)C(C)CCCN3S(C)(=O)=O` (centres unmarked) [Compound B91], the pEC50 under setting [2] is 6.00 to 7.00.
